2 molecules from patent US20250195561A1, “A CATIONIC DENDRIMER FOR IMPROVING ANTIBIOTIC EFFICACY OF AN ANTIBIOTIC” (GAMA HEALTHCARE LTD, priority 2022, published 2025) can be followed below.

In general, MIC refers to the lowest concentration that inhibits growth of the organism.

Assay type in all cases: cell-based
The test system of assay [1] is Pseudomonas aeruginosa strain PA01. In words: Antibiotic disc diffusion assay (zone of inhibition). Conditions: antibiotic disc on Iso-Sensitest agar, 37° C., 20 hours, ±Stdev, n = 2. The protocol: (§1) The antibiotic disc diffusion assay was performed as described previously to determine the antibiotic susceptibility of the two strains. Briefly, a standardised suspension of the two Pseudomonas strains was used to inoculate Iso-Sensitest agar (ISA) plates to yield semi-confluent growth of each organism. Antibiotic discs containing Gentamicin and Imipenem were applied to the inoculated plates, then incubated at 37° C. for 20 hours. Zones of inhibition were measured to the nearest millimetre.
A general note: Agar diffusion results depend on both activity and mobility in agar.

Assay [2] has as its system Pseudomonas aeruginosa strain PS3. The description is as above. Conditions: antibiotic disc on Iso-Sensitest agar, 37° C., 20 hours, ±Stdev, n = 2. How it is done: as §1
The subject of assay [3] is Pseudomonas aeruginosa strain PA01. In words: 96-well broth dilution test (MIC) in presence and absence of dendrimer. To be noted: for MIC: MHB, 37° C., 24 hours; for Reduction (%) in MIC: with dendrimer (0.1%) versus antibiotic alone. How it is done:
(§2) Briefly, a standard suspension of the two Pseudomonas strains was prepared in Mueller Hinton Broth (MHB), then added to varying concentrations of antibiotic in a 96-well plate. Tests were performed either in the presence or absence of dendrimer (final concentration 0.1%). 96-well plates were incubated at 37° C. for 24 hours, with optical density (620 nm) of cultures monitored over this period using a Multiskan EX plate reader (Thermo Labsystems).

Assay [4] has as its system Pseudomonas aeruginosa strain PS3. Described as above. Conditions: for MIC: MHB, 37° C., 24 hours; for Reduction (%) in MIC: with dendrimer (0.1%) versus antibiotic alone. How it is done: as §2
Setting [5] is: presence of dendrimer (final concentration 0.1%).

In brackets after ≈: the same amount, converted by molar mass. Where two headings read alike, the source gives them in different places.

`C[C@@H](O)[C@H]1C(=O)N2C(C(=O)O)=C(SCCN=CN)C[C@H]12` [Imipenem]: the Zone of inhibition in assay [1] is reported as 12 (±2.8) Mm; in assay [2], 35 (±0.0) Mm. Further, the MIC in assay [3] (Pseudomonas aeruginosa, PA01, 24 h, absence of dendrimer, read-out: MIC) is 28.3 µg/mL (≈ 94.6 µM); in assay [3] (Pseudomonas aeruginosa, PA01, 24 h, presence of dendrimer (final concentration 0.1%), read-out: MIC), below 0.011 µg/mL; in assay [4] (Pseudomonas aeruginosa, PS3, 24 h, absence of dendrimer, read-out: MIC), 51.1 µg/mL (≈ 171 µM); in assay [4] (Pseudomonas aeruginosa, PS3, 24 h, presence of dendrimer (final concentration 0.1%), read-out: MIC), below 0.011 µg/mL. Moreover, the “Reduction (%) in MIC” value in assay [3] and in assay [4] was above 99.9% throughout.

Turning to Gentamicin, the Zone of inhibition in assay [1] is 38 (±1.4) Mm; in assay [2], 46 (±0.7) Mm. The MIC in assay [3] (absence of dendrimer) came to 4.64 µg/mL; in assay [3] (setting [5]) it was 1.34 µg/mL; in assay [4] (absence of dendrimer), 1.45 µg/mL; in assay [4] (setting [5]), 0.32 µg/mL. Further, the “Reduction (%) in MIC” value was determined as 71% in assay [3] and 78% in assay [4].
